{"source": "patent US20060134063A1", "about": "“Agents for proliferating pancreatic beta-cells of the islets of langerhans, agents for suppressing apoptosis of said cells, and screening of candidate compounds for these agents” (priority 2000, published 2006)", "molecules": {"B1": {"name": "Reg protein: product of Reg (regenerating gene), stimulates β-cell proliferation (protein)", "chain": "QEAEEDLPSARITCPEGSNAYSSYCYYFMEDHLSWAEADLFCQNMNSGYLVSVLSQAEGNFLASLIKESGTTAANVWIGLHDPKNNRRWHWSSGSLFLYKSWDTGYPNNSNRGYCVSVTSNSGYKKWRDNSCDAQLSFVCKFKA"}, "B2": {"name": "Human REG protein: human REG protein, 166-amino acid protein with 68% identity to rat Reg protein (protein, UniProt P05451 1-166, looked up)", "chain": "MAQTSSYFMLISCLMFLSQSQGQEAQTELPQARISCPEGTNAYRSYCYYFNEDRETWVDADLYCQNMNSGNLVSVLTQAEGAFVASLIKESGTDDFNVWIGLHDPKKNRRWHWSSGSLVSYKSWGIGAPSSVNPGYCVSLTSSTGFQKWKDVPCEDKFSFVCKFKN", "modifications": "full-length", "notes": "human REG protein, 166-amino acid protein with 68% identity to rat Reg protein"}, "B3": {"name": "Recombinant rat Reg protein: recombinant rat Reg protein, 165-amino acid protein with a 21-amino acid signal peptide (protein, UniProt P10758 1-165, looked up)", "chain": "MTRNKYFILLSCLMVLSPSQGQEAEEDLPSARITCPEGSNAYSSYCYYFMEDHLSWAEADLFCQNMNSGYLVSVLSQAEGNFLASLIKESGTTAANVWIGLHDPKNNRRWHWSSGSLFLYKSWDTGYPNNSNRGYCVSVTSNSGYKKWRDNSCDAQLSFVCKFKA", "modifications": "full-length", "notes": "recombinant rat Reg protein, 165-amino acid protein with a 21-amino acid signal peptide"}}, "key": {"Reg gene": {"test_system": "Reg gene", "experiment": "RT-PCR of Reg gene expression in RINm5F cells", "assay_type": "cell-based, rat", "details": "24 h with stimulants", "protocol": "The Reg gene expression was analyzed by RT-PCR. The cells were harvested after 24 h of culturing in a medium supplemented with stimulants, and total RNA was prepared using cesium trifluoroacetate as described in Takasawa, S. et al. (1993) J. Biol. Chem., 268, 26052-26054. RT-PCR was performed using primers corresponding to nucleotides 23 to 43 and 572 to 593 of rat Reg mRNA (Terazono, K. et al. (1988) J. Biol. Chem., 263, 2111-2114)."}, "[1]": {"test_system": "5'-flanking region of the rat Reg gene", "experiment": "Reg promoter/luciferase reporter assay in RINm5F cells", "assay_type": "cell-based", "details": "2,303-bp Reg 5'-flanking fragment; 24 h stimulation", "protocol": "A 2,303-bp fragment containing the 5′-flanking region of Reg gene was fused to the luciferase gene and transfected into RINm5F β-cells.\nSpecifically, luciferase reporter gene constructs were generated as described in Miyashita, H. et al. (1994) Biochim. Biophys. Acta, 1219, 241-243. RINm5F cells were seeded at 1×10^5 cells/well in 24-well dish. After 48 h, 3.0 μg of test plasmid and 0.2 μg of pCMV-SPORT β-gal (Life Technologies, Inc.) were transfected by lipofection (Felgner, J. H. et al. (1994) J. Biol. Chem., 269, 2550-2561) using DMRIE-C™ (Life Technologies, Inc.). After 24 h, the medium of each dish was replaced with fresh medium containing stimulants and incubated further for 24 h. Cells were harvested in 1 ml of ice-cold phosphate-buffered saline (PBS), washed twice with PBS, and extracts were prepared in extraction buffer (0.1 M potassium phosphate, pH 6.8, 1 mM DTT). The protein concentration was determined using a Coomassie reagent kit (Pierce) and bovine serum albumin as a standard. Luciferase activity was determined by a chemiluminescence substrate using a Pica Gene™ Luminescence Kit (Toyo Ink Mfg. Co, Ltd., Tokyo, Japan). β-galactosidase activity was determined using Aurora™ GAL-XE (ICN)."}, "[2]": {"biological_target": "T1, poly(ADP-ribose) synthetase/polymerase (PARP) (Rattus norvegicus, UniProt P27008)", "T1 construct": "Nuclear extracts from RINm5F cells were prepared as described; endogenous in cells; host or cells: RINm5F (rat insulinoma) nuclear extract", "T1 sequence (P27008 whole entry)": "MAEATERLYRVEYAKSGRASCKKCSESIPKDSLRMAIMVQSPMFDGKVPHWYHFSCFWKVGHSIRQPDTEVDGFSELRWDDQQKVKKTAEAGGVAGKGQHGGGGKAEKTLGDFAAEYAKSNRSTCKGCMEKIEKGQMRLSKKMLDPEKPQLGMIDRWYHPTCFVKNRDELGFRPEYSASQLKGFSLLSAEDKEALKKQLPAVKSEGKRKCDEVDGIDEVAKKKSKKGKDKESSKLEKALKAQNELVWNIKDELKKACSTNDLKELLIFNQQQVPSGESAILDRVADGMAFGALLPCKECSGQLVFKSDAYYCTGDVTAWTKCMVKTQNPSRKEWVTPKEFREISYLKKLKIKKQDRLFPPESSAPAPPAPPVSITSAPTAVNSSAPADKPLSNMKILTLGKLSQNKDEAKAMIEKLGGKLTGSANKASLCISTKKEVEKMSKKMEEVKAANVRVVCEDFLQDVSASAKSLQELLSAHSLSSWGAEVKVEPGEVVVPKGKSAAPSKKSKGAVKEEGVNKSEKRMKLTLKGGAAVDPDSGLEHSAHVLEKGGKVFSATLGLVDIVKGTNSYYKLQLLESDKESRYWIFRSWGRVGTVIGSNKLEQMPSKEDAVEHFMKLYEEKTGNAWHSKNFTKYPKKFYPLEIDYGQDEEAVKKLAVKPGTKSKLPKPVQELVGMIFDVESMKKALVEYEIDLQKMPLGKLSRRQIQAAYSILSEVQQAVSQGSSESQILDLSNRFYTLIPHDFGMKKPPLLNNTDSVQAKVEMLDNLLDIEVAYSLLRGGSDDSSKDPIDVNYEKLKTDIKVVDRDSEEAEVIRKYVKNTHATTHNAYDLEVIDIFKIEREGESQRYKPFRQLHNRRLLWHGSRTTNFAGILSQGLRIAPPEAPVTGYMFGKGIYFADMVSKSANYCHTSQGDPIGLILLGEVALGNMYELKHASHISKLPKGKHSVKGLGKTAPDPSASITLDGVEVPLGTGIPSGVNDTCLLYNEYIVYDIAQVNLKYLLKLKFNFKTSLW", "experiment": "GMSA binding reaction of RINm5F nuclear extracts, effects of ADP-ribosylation", "assay_type": "biochemical", "details": "for intensity of the IL-6/dexamethasone/nicotinamide-dependent GMSA band: added to the binding reaction prior to the 32P-probe", "protocol": "The nuclear extract (10 μg) was incubated in a final volume of 20 μl of buffer containing 20 mM Tris-HCl (pH 7.9), 2 mM MgCl2, 50 mM NaCl, 2 mM EDTA, 10% glycerol, 0.1% Nonidet P-40, 1 mM DTT, 50 μg/ml bovine serum albumin and 1 μg of poly(dI-dC). After incubation for 10 min at room temperature, 2.5 pmol of double-stranded DNA, previously labeled by an exchange reaction using MEGALABEL (Takara Shuzo) and [γ-^32P]ATP (Amersham Pharmacia Biotech), were added and incubated for 30 min at room temperature, then the binding reactions were resolved on pre-run 6% acrylamide gel. […] After electrophoresis, DNA/proteins were electrophoretically transferred to a PolyScreen™ PVDF membrane (NEN).\nPoly(ADP-ribosyl)ation of nuclear proteins was performed in the same condition as GMSA in the presence of 62 nM [adenylate-^32P]NAD^+ (2×10^6 cpm, NEN). The ADP-ribosylated proteins were precipitated by the addition of 9 volume of acetone, separated by SDS-PAGE (12.5%) and autoradiographed."}, "90% depancreatized rats": {"test_system": "90% depancreatized rats", "details": "cited from earlier work"}, "[3]": {"test_system": "RINm5F cell lines, #1, #6, and #24, which stably express the Reg protein receptor", "experiment": "TUNEL apoptosis assay in RINm5F cell lines #1, #6, #24 expressing Reg protein receptor", "assay_type": "cell-based, rat", "details": "HGF 0, 2.5, 25 ng/ml; 24 h; every cell line", "description": "Rat insulinoma RINm5F cell lines, #1, #6, and #24, which stably express Reg protein receptor (Kobayashi, S. et al. (2000) J. Biol. Chem. 275, 10723-10726) were similarly cultured as in Example 4 and 1,000 nM Reg protein and HGF at varied concentrations, 0, 2.5, and 25 ng/ml were added thereto. Twenty-four hours after the addition of Reg protein/HGF, apoptosis was measured by TUNEL method using an Apoptosis Screening kit (Wako Pure Chemical Industries Ltd., Osaka, Japan) as described in Kobayashi, S. et al. (2000) J. Biol. Chem. 275, 10723-10726."}, "Reg protein": {"test_system": "Reg protein", "experiment": "Immunoblot of secreted Reg protein in RINm5F culture medium", "assay_type": "cell-based, rat", "details": "24 h incubation with stimulants", "protocol": "The Reg protein levels in the RINm5F cultured media were examined after stimulation. After 24-hour incubation of the cells in a medium supplemented with stimulants, the medium was collected, and subjected to immunoblot analyses as described in Watanabe, T. et al. (1990) J. Biol. Chem., 265, 7432-7439. The medium of RINm5F cells was subjected to SDS polyacrylamide gel electrophoresis (SDS-PAGE) and electrotransferred to a PVDF membrane as described in Takasawa, S. et al. (1993) J. Biol. Chem., 268, 26052-26054. Western blotting was carried out using an anti-rat Reg monoclonal antibody (Terazono, K. et al. (1990) Diabetologia, 33, 250-252)."}, "[4]": {"test_system": "RINm5F cell lines, #1, #6, and #24, which stably express the Reg protein receptor", "details": "1,000 nM Reg protein added to culture media; cited from earlier work"}, "[5]": {"test_system": "non-obese diabetic (NOD) mice", "details": "cited from earlier work"}}}
{"molecule": "NC(=O)c1cccc(N)c1", "note": "[3-aminobenzamide]", "values": [{"measurement": "Reg gene expression (Reg mRNA)", "setting": "Reg gene", "result": "no effect on Reg expression"}, {"measurement": "luciferase activity (result in words)", "setting": "[1]", "result": "ineffective"}, {"measurement": "IC50", "setting": "[2]; 1 mM β-NAD+ in the GMSA binding reaction, read-out: concentrations of half maximal inhibition (quenching of the effect of β-NAD+ on the GMSA band)", "result": 30, "unit": "µM"}, {"measurement": "development of diabetes after 90% pancreatectomy", "setting": "90% depancreatized rats; PARP inhibitor-treated rats", "result": "preventing the development of diabetes"}]}
{"molecule": "Nc1ncnc2c1ncn2[C@@H]1O[C@H](COP(=O)(O)OP(=O)(O)OC[C@H]2OC(O)[C@H](O)[C@@H]2O)[C@@H](O)[C@H]1O", "note": "(some centres unmarked) [ADP-ribose]", "values": [{"measurement": "intensity of the IL-6/dexamethasone/nicotinamide-dependent GMSA band", "setting": "[2]", "result": "did not attenuate the band intensity"}]}
{"molecule": "N=c1c2ncn3c2ncn1[C@@H]1O[C@H](COP(=O)(O)OP(=O)(O)OC[C@H]2O[C@@H]3[C@H](O)[C@@H]2O)[C@@H](O)[C@H]1O", "note": "[cyclic ADP-ribose]", "values": [{"measurement": "intensity of the IL-6/dexamethasone/nicotinamide-dependent GMSA band", "setting": "[2]", "result": "did not attenuate the band intensity"}]}
{"molecule": "NC(=O)c1ccc[n+]([C@H]2O[C@H](COP(=O)(O)OP(=O)(O)OC[C@H]3O[C@@H](n4cnc5c(N)ncnc54)[C@H](O)[C@@H]3O)[C@@H](O)[C@H]2O)c1", "note": "[α-NAD^+]", "values": [{"measurement": "intensity of the IL-6/dexamethasone/nicotinamide-dependent GMSA band", "setting": "[2]", "result": "not"}]}
{"molecule": "NC(=O)c1ccc[n+]([C@@H]2O[C@H](COP(=O)([O-])OP(=O)(O)OC[C@H]3O[C@@H](n4cnc5c(N)ncnc54)[C@H](O)[C@@H]3O)[C@@H](O)[C@H]2O)c1", "note": "[β-NAD^+]", "values": [{"measurement": "intensity of the IL-6/dexamethasone/nicotinamide-dependent GMSA band", "setting": "[2]", "result": "attenuated"}]}
{"molecule": "HGF: hepatocyte growth factor (HGF; Sigma)", "values": [{"measurement": "apoptosis induced by 1,000 nM Reg protein (TUNEL)", "setting": "[3]", "result": "concentration-dependently inhibited apoptosis"}]}
{"molecule": "IL-1β: IL-1β (Sigma), stimulant", "values": [{"measurement": "Reg gene expression (Reg mRNA)", "setting": "Reg gene", "result": "no effect on Reg expression"}]}
{"molecule": "IL-6: interleukin (IL)-6, a cytokine whose receptor is gp130 (Genzyme)", "values": [{"measurement": "Reg protein secretion into the medium", "setting": "Reg protein", "result": "did not induce Reg protein secretion"}, {"measurement": "Reg gene expression (Reg mRNA)", "setting": "Reg gene", "result": "no effect on Reg expression"}, {"measurement": "luciferase activity (result in words)", "setting": "[1]", "result": "ineffective"}]}
{"molecule": "TNFα", "values": [{"measurement": "Reg gene expression (Reg mRNA)", "setting": "Reg gene", "result": "no effect on Reg expression"}]}
{"molecule": "B1", "values": [{"measurement": "proliferation and apoptosis of the cells", "setting": "[4]", "result": "induced not only proliferation but also apoptosis"}]}
{"molecule": "B2", "values": [{"measurement": "β-cell mass", "setting": "[5]", "result": "induced an expansion of the β-cell mass"}]}
{"molecule": "B3", "values": [{"measurement": "β-cell replication and β-cell mass in the residual pancreas", "setting": "90% depancreatized rats; 90% depancreatized rats", "result": "stimulated β-cell replication and increased the β-cell mass"}]}
